Measurements reported in the NIST ThermoML archive (doi:10.1021/je7004374).
± gives the expanded uncertainty stated by the source.

Conditions: Liquid; for speed of sound: Sing-around technique in a fixed-path interferometer

OCCCO [propan-1,3-diol]
Conditions	mass density [kg/m3]	speed of sound [m/s]
283.16 K, 101.33 kPa	1059.09 ± 0.66	–
288.15 K, 101.33 kPa	1056 ± 0.65	–
292.88 K, 30390 kPa	–	1721.7 ± 2.4
292.89 K, 15200 kPa	–	1681.2 ± 2.4
292.89 K, 45590 kPa	–	1760.3 ± 2.4
292.89 K, 60790 kPa	–	1797 ± 2.4
292.89 K, 75990 kPa	–	1832.2 ± 2.4
292.89 K, 91180 kPa	–	1865.9 ± 2.5
292.89 K, 101320 kPa	–	1887.8 ± 2.5
292.91 K, 100 kPa	–	1636.5 ± 1.8
293.15 K, 100 kPa	1052.91 ± 0.64	–
293.15 K, 101.33 kPa	–	1636 ± 1.8
293.15 K, 10000 kPa	1057 ± 0.82	–
293.15 K, 20000 kPa	1060.96 ± 1	–
293.15 K, 30000 kPa	1064.8 ± 1.3	–
293.15 K, 40000 kPa	1068.51 ± 1.5	–
293.15 K, 50000 kPa	1072.11 ± 1.8	–
293.15 K, 60000 kPa	1075.61 ± 2.1	–
293.15 K, 70000 kPa	1079.02 ± 2.4	–
293.15 K, 80000 kPa	1082.34 ± 2.8	–
293.15 K, 90000 kPa	1085.57 ± 3.1	–
293.15 K, 100000 kPa	1088.73 ± 3.5	–
293.16 K, 101.33 kPa	1052.89 ± 0.64	–
298.15 K, 100 kPa	1049.81 ± 0.62	–
298.15 K, 101.33 kPa	1049.78 ± 0.63	1624.5 ± 1.8
298.15 K, 10000 kPa	1053.95 ± 0.8	–
298.15 K, 20000 kPa	1057.97 ± 1	–
298.15 K, 30000 kPa	1061.86 ± 1.2	–
298.15 K, 40000 kPa	1065.62 ± 1.5	–
298.15 K, 50000 kPa	1069.27 ± 1.8	–
298.15 K, 60000 kPa	1072.82 ± 2.1	–
298.15 K, 70000 kPa	1076.26 ± 2.4	–
298.15 K, 80000 kPa	1079.62 ± 2.7	–
298.15 K, 90000 kPa	1082.89 ± 3	–
298.15 K, 100000 kPa	1086.09 ± 3.4	–
298.16 K, 75990 kPa	–	1821.4 ± 2.4
298.16 K, 91180 kPa	–	1855.4 ± 2.5
298.16 K, 101320 kPa	–	1877.2 ± 2.5
298.17 K, 100 kPa	–	1624.5 ± 1.8
298.17 K, 15200 kPa	–	1668.7 ± 2.4
298.17 K, 30390 kPa	–	1709.9 ± 2.4
298.17 K, 45590 kPa	–	1748.8 ± 2.4
298.17 K, 60790 kPa	–	1786 ± 2.4
303.14 K, 101320 kPa	–	1868 ± 2.5
303.15 K, 100 kPa	1046.7 ± 0.61	1613.2 ± 1.8
303.15 K, 101.33 kPa	–	1613.2 ± 1.8
303.15 K, 10000 kPa	1050.89 ± 0.78	–
303.15 K, 20000 kPa	1054.96 ± 0.98	–
303.15 K, 30000 kPa	1058.9 ± 1.2	–
303.15 K, 40000 kPa	1062.72 ± 1.4	–
303.15 K, 45590 kPa	–	1738.6 ± 2.4
303.15 K, 50000 kPa	1066.41 ± 1.7	–
303.15 K, 60000 kPa	1070 ± 2	–
303.15 K, 60790 kPa	–	1776 ± 2.4
303.15 K, 70000 kPa	1073.49 ± 2.3	–
303.15 K, 75990 kPa	–	1811.7 ± 2.4
303.15 K, 80000 kPa	1076.89 ± 2.6	–
303.15 K, 90000 kPa	1080.2 ± 3	–
303.15 K, 91180 kPa	–	1845.8 ± 2.5
303.15 K, 100000 kPa	1083.43 ± 3.3	–
303.16 K, 101.33 kPa	1046.65 ± 0.62	–
303.16 K, 15200 kPa	–	1657.6 ± 2.4
303.16 K, 30390 kPa	–	1699 ± 2.4
308.13 K, 100 kPa	–	1601.9 ± 1.8
308.15 K, 100 kPa	1043.56 ± 0.6	–
308.15 K, 101.33 kPa	–	1601.8 ± 1.8
308.15 K, 10000 kPa	1047.8 ± 0.76	–
